Experimental data from patent publication US7851617B2, “Indole derivatives” (Mitsubishi Tanabe Pharma Corporation, priority 2006, dated 2010).
Read-outs that look alike come from different tables or passages of the source.

Assays:
[1] = target: T1, human SGLT2 (Homo sapiens, UniProt P31639); assay: Assay for SGLT2 inhibition (14C-AMG uptake); assay type: cell-based
T1 construct: expressed in transfected cells; host or cells: CHOK1 cells (selected with Geneticin)
T1 sequence (P31639 1-672): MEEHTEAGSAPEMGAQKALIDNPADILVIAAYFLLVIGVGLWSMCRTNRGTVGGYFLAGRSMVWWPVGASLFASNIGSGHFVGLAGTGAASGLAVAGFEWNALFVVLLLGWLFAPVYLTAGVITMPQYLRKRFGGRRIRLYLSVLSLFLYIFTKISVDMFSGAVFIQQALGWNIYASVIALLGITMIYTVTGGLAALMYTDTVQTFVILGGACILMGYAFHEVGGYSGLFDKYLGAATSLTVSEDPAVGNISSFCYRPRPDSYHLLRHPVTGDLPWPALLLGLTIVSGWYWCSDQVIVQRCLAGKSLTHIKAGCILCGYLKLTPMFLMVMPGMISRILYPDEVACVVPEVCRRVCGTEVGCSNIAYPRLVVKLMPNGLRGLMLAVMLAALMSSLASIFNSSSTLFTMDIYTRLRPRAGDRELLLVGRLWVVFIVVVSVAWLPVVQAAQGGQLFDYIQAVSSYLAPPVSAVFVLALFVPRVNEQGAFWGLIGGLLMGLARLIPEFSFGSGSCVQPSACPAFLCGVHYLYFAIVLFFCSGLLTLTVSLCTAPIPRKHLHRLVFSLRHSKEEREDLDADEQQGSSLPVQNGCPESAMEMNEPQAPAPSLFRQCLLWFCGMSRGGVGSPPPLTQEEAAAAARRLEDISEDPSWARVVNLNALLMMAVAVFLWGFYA
Experimental: Compounds described in the above examples were used for the SGLT2 inhibition assay. CHOK1 cells expressing human SGLT2 were seeded in 24-well plates at a density of 400,000 cells/well in F-12 nutrient mixture (Ham's F-12) containing 10% fetal bovine serum, 400 μg/ml Geneticin, 50 units/ml sodium penicillin G (Gibco-BRL) and 50 μg/ml streptomycin sulfate. After 2 days of culture at 37° C. in a humidified atmosphere containing 5% CO2, cells were washed once with the assay buffer (137 mM NaCl, 5 mM KCl, 1 mM CaCl2, 1 mM MgCl2, 50 mM Hepes, and 20 mM Tris, pH 7.4) and incubated with 250 μl of the buffer containing test compounds for 10 min at 37° C. Test compounds were dissolved in DMSO. The final concentration of DMSO was 0.5%. The transport reaction was initiated by addition of 50 μl [^14C]-methyl-α-D-glucopyranoside (^14C-AMG) solution (final concentration, 0.5 mM). After incubation for 2 hours at 37° C., the uptake was stopped by aspiration of the incubation mixture, the cells were washed three times with ice-cold PBS. Then, cells were solubilized with 0.3 N NaOH and aliquots were taken for determination of radioactivity by a liquid scintillation counter. Nonspecific AMG uptake was defined as that which occurred in the presence of 100 μM of phlorizin, a specific inhibitor of sodium-dependent glucose cotransporter. Specific uptake was normalized for the protein concentrations measured by the method of Bradford. The 50% inhibitory concentration (IC50) values were calculated from dose-response curves by least square method.

[2] = system: Sprague-Dawley (SD) rats; assay: Urinary glucose excretion test in rats; assay type: in vivo, rat; conditions: male SD rats, 30 mg/kg by oral gavage, urine collected for 24 hours, daily amount of glucose excreted per individual
Experimental: Compounds described in the above examples were used for the Urinary glucose excretion test in rats.
6-week-old male Sprague-Dawley (SD) rats were housed in individual metabolic cages with free access to food and water from 2 days prior to the experiment. On the morning of the experiment, rats were administered vehicle (0.2% carboxymethyl cellulose solution containing 0.2% Tween80) or test compounds (30 mg/kg) by oral gavage at a volume of 10 ml/kg. Then, urine of the rat was collected for 24 hours, and the urine volume was measured. Subsequently, the glucose concentration in urine was quantified using the enzymatic assay kit and the daily amount of glucose excreted in urine per individual was calculated.

[3] = CHOK1 cells expressing human SGLT2, 14C-AMG uptake, 2 hours at 37° C., read-out: IC50

Compound | IC50 [1, 3] [nM] | Urinary glucose [2] | IC50 [1] [nM]
OC[C@H]1O[C@@H](n2cc(Cc3ccc(C4CC4)cc3)c3c(Cl)cc(F)cc32)[C@H](O)[C@@H](O)[C@@H]1O [Example 4, 4-Chloro-3-(4-cyclopropylphenylmethyl)-6-fluoro-1-(β-D-gluco-pyranosyl) indole] | 3.6 | C (2000 mg>C) | 
OC[C@H]1O[C@@H](n2cc(Cc3ccc(C4CC4)cc3)c3c(F)cccc32)[C@H](O)[C@@H](O)[C@@H]1O [Example 1, 3-(4-Cyclopropylphenylmethyl)-4-fluoro-1-(β-D-gluco-pyranosyl)indole] | 1.9 | B (2400 mg>B≧2000 mg) | 
OC[C@H]1O[C@@H](n2cc(Cc3ccc(C4CC4)cc3)c3c(F)cc(F)cc32)[C@H](O)[C@@H](O)[C@@H]1O [Example 3, 3-(4-Cyclopropylphenylmethyl)-4,6-difluoro-1-(β-D-gluco-pyranosyl) indole] | 2.8 | B (2400 mg>B≧2000 mg) | 
OC[C@H]1O[C@@H](n2cc(Cc3ccc(C4CC4)cc3)c3c(Cl)cccc32)[C@H](O)[C@@H](O)[C@@H]1O [Example 2, 4-Chloro-3-(4-cyclopropylphenyl-methyl)-1-(β-D-glucopyranosyl)indole] |  | A (A≧2400 mg) | 2.3
